Bridge positions count the residues as written; N and C are the ends. Square brackets hold non-standard residues; d marks the D form. Peptide text beside a SMILES is read from it. Phe(3,4-Cl2) = N[C@@H](Cc1ccc(Cl)c(Cl)c1)C(=O)O; Bip = N[C@@H](Cc1ccc(-c2ccccc2)cc1)C(=O)O; Phe(3-F) = N[C@@H](Cc1cccc(F)c1)C(=O)O; NMeF = CN[C@@H](Cc1ccccc1)C(=O)O; NMeA = CN[C@@H](C)C(=O)O
target: human PCSK9 (Homo sapiens, UniProt Q8NBP7); assay: PCSK9 ligand binding assay (TR-FRET): interference with binding of human PCSK9 to human LDLR; conditions: PCSK9 FRET assay, efficacy (Amax); 0% = DMSO, 100% = 1 uM unlabeled human PCSK9
Protocol: The activity of cyclic polypeptides according to the disclosure as PCSK9 can be assessed using a time resolved fluorescence resonance energy transfer (TR-FRET) assay. This time resolved fluorescence resonance energy transfer (TR-FRET) assay measures the ability of a cyclic polypeptides of the disclosure to interfere with the binding of human PCSK9 to human LDLR, providing measures of both potency (IC50) and efficacy (Amax).
Solutions of varying concentrations are prepared by diluting a cyclic polypeptide of the disclosure in dimethylsulfoxide (DMSO) and the resulting solutions are pipetted into a plate. DMSO is used as a negative control. An intermediate plate is prepared in by transferring a known amount of each polypeptide solution and of the control from the compound plate into a corresponding well containing assay buffer and mixing thoroughly. A third plate is then prepared to be used for the assay by adding Human PCSK9 Alexa Fluor 647, followed by a known amount of each solution from the intermediate plate. Unlabeled human PCSK9 in assay buffer containing DMSO is used as a positive control for the assay. Following incubation, Human LDLR extracellular domain-Europium Kryptate is added to each well of the assay plate and the resulting mixture is incubated for an additional period of time. The TR-FRET signal is measured and the FRET ratio (FRET/Europium) is used to calculate the IC50 and Amax of the cyclic polypeptides.
The PCSK9 binding of the cyclic polypeptides of the disclosure were measured using a time resolved fluorescence resonance energy transfer (TR-FRET) assay. This time resolved fluorescence resonance energy transfer (TR-FRET) assay measures the ability of a cyclic polypeptide of the disclosure to interfere with the binding of human PCSK9 to human LDLR, providing measures of both potency (IC50) and efficacy (Amax).
• Human PCSK9 • Human PCSK9 Alexa Fluor 647 • Human LDLR extracellular domain-Europium Kryptate • Proxi plate-low volume assay plate (PerkinElmer #6008280) • Greiner V-bottom (Greiner BioOne #781280) • Assay Buffer • 20 mM HEPES, pH 7.5 • 150 mM NaCl • 1 mM CaCl2 • 0.01% v/v Tween20 • 0.01% w/v BSA
A master compound plate was prepared in a Greiner V bottom plate by diluting cyclic polypeptides of the disclosure in dimethylsulfoxide to the correct concentration for the desired top concentration based on the desired final concentration: for a 30 uM final concentration the master plate concentration is 1.5 mM (68 uL DMSO+12 uL 10 mM of a cyclic polypeptide of the disclosure), for a 10 uM final concentration the master plate concentration is 0.5 mM (76 uL DMSO+4 uL 10 mM of a cyclic polypeptide of the disclosure), for a 3 uM final concentration the master plate concentration is 150 uM (69 uL DMSO+1 uL 10 mM a cyclic peptide of the disclosure). These solutions were pipetted into columns 1 and 11 of the compound plate. Threefold serial dilutions were generated in columns 2-10 and 12-20 of the compound plate by transferring 10 uL into 20 μL of DMSO. Columns 21 and 22 of the compound plate were negative controls containing DMSO alone.
An intermediate plate was generated in a Greiner V bottom plate by transferring 8 uL from each well of the master plate into a corresponding well containing 92 μL of assay buffer and mixing thoroughly.
A Proxi plate-low volume assay plate was used for the assay. To all wells of the plate was added 10 μL of 16 nM Human PCSK9 Alexa Fluor 647, followed by 5 uL from the intermediate plate. […] Following a 30 minute incubation, 5 μL of 4 nM Human LDLR extracellular domain-Europium Kryptate was added and the mixture was incubated for an additional 2 hours.
The TR-FRET signal was measured on an EnVision or PheraStar instrument with a […] delay, 330 nm excitation and 665 nm emission (FRET), and 330 nm excitation and 615 nm (Europium). The FRET ratio (FRET/Europium) was used for calculations. […]

Chain of human PCSK9 (Q8NBP7 153-692): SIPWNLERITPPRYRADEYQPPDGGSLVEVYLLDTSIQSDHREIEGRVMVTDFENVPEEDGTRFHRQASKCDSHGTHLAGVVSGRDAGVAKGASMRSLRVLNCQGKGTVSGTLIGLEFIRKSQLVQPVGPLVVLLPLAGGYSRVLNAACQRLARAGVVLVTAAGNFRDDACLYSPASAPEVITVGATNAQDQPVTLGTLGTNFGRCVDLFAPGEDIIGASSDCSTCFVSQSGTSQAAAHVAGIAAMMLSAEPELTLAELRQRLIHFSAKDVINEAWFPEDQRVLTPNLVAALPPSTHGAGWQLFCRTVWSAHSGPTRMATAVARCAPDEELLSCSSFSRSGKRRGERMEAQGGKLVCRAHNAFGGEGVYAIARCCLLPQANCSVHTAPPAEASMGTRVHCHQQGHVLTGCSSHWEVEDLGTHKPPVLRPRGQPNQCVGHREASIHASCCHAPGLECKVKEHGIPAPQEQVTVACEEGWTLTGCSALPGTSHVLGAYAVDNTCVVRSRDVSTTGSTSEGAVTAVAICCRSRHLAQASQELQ
Chain of human PCSK9 (Q8NBP7 31-152 partner limits assumed): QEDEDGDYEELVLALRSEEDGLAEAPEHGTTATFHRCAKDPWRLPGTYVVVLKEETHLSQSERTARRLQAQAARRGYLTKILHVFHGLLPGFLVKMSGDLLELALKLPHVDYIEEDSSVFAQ

| Structure (SMILES) | Maximum % inhibition [%] |
| --- | --- |
| CC(C)[C@@H]1NC(=O)[C@H](Cc2ccccc2)NC(=O)CSC[C@@H](C(=O)NCC(N)=O)NC(=O)[C@@H]2CCCN2C(=O)[C@H](CO)NC(=O)[C@H](CCC(=O)O)NC(=O)[C@H](C)N(C)C(=O)[C@H](Cc2ccc(-c3ccccc3)cc2)NC(=O)[C@H](Cc2ccccc2)N(C)C(=O)[C@H](CO)NC(=O)[C@H]([C@@H](C)O)NC(=O)[C@H]([C@@H](C)O)NC(=O)[C@H](CO)NC1=O [Example 1-12, Ac*-F-V-S-T-T-S-(N-Me)F-B-(N-Me)A-E-S-P-C*-G-NH2] ({CH2CO}-FVSTTS[NMeF][Bip][NMeA]ESPCG-NH2; thioether N-13) | 87 |
| CC(C)[C@@H]1NC(=O)[C@H](Cc2ccccc2)NC(=O)CSC[C@@H](C(=O)NCC(N)=O)NC(=O)[C@@H]2CCCN2C(=O)[C@H](CO)NC(=O)[C@H](CCC(=O)O)NC(=O)[C@H](C)N(C)C(=O)[C@H](Cc2ccc(-c3ccccc3)cc2)NC(=O)[C@H](Cc2ccccc2)N(C)C(=O)[C@H](Cc2ccc(-c3ccccc3)cc2)NC(=O)[C@H]([C@@H](C)O)NC(=O)[C@H]([C@@H](C)O)NC(=O)[C@H](CO)NC1=O [Example 1-13, Ac*-F-V-S-T-T-B-(N-Me)F-B-(N-Me)A-E-S-P-C*-G-NH2] ({CH2CO}-FVSTT[Bip][NMeF][Bip][NMeA]ESPCG-NH2; thioether N-13) | 86 |
| CC(C)[C@@H]1NC(=O)[C@H](Cc2ccccc2)NC(=O)CSC[C@@H](C(=O)NCC(N)=O)NC(=O)[C@@H]2CCCN2C(=O)[C@H](CCCNC(=N)N)NC(=O)[C@H](CC(=O)O)NC(=O)[C@H](C)N(C)C(=O)[C@H](Cc2ccc(Cl)c(Cl)c2)NC(=O)[C@H](C)N(C)C(=O)[C@H](Cc2ccc(-c3ccccc3)cc2)NC(=O)[C@H]([C@@H](C)O)NC(=O)[C@H]([C@@H](C)O)NC(=O)[C@H](CO)NC1=O [Example 1-14, Ac*-F-V-S-T-T-B-(N-Me)A-(3,4-diCl)F-(N-Me)A-D-R-P-C*-G-NH2] ({CH2CO}-FVSTT[Bip][NMeA][Phe(3,4-Cl2)][NMeA]DRPCG-NH2; thioether N-13) | 49 |
| CC(C)[C@@H]1NC(=O)[C@H](Cc2ccccc2)NC(=O)CSC[C@@H](C(=O)NCC(N)=O)NC(=O)[C@@H]2CCCN2C(=O)[C@H](CCCNC(=N)N)NC(=O)[C@H](CC(=O)O)NC(=O)[C@H](C)N(C)C(=O)[C@H](Cc2cccc(F)c2)NC(=O)[C@H](C)N(C)C(=O)[C@H](Cc2ccc(-c3ccccc3)cc2)NC(=O)[C@H]([C@@H](C)O)NC(=O)[C@H]([C@@H](C)O)NC(=O)[C@H](CO)NC1=O [Example 1-15, Ac*-F-V-S-T-T-B-(N-Me)A-(3-F)F-(N-Me)A-D-R-P-C*-G-NH2] ({CH2CO}-FVSTT[Bip][NMeA][Phe(3-F)][NMeA]DRPCG-NH2; thioether N-13) | 53 |
| CC(C)[C@@H]1NC(=O)[C@H](Cc2ccccc2)NC(=O)CSC[C@@H](C(=O)NCC(N)=O)NC(=O)[C@@H]2CCCN2C(=O)[C@H](C)NC(=O)[C@H](CCC(=O)O)NC(=O)[C@H](C)N(C)C(=O)[C@H](Cc2ccc(-c3ccccc3)cc2)NC(=O)[C@H](Cc2ccccc2)N(C)C(=O)[C@H](C)NC(=O)[C@H]([C@@H](C)O)NC(=O)[C@H]([C@@H](C)O)NC(=O)[C@H](CC(=O)O)NC1=O [Example 1-16, Ac*-F-V-D-T-T-A-(N-Me)F-B-(N-Me)A-E-A-P-C*-G-NH2] ({CH2CO}-FVDTTA[NMeF][Bip][NMeA]EAPCG-NH2; thioether N-13) | 91 |
| CC(C)[C@@H]1NC(=O)[C@H](Cc2ccccc2)NC(=O)CSC[C@@H](C(=O)NCC(N)=O)NC(=O)[C@@H]2CCCN2C(=O)[C@H](CO)NC(=O)[C@H](CCC(=O)O)NC(=O)[C@H](C)N(C)C(=O)[C@H](Cc2ccc(-c3ccccc3)cc2)NC(=O)[C@H](C)N(C)C(=O)[C@H](Cc2ccccc2)NC(=O)[C@H]([C@@H](C)O)NC(=O)[C@H]([C@@H](C)O)NC(=O)[C@H](CC(=O)O)NC1=O [Example 1-17, Ac*-F-V-D-T-T-F-(N-Me)A-B-(N-Me)A-E-S-P-C*-G-NH2] ({CH2CO}-FVDTTF[NMeA][Bip][NMeA]ESPCG-NH2; thioether N-13) | 91 |
| CC(C)[C@@H]1NC(=O)[C@H](Cc2ccccc2)NC(=O)CSC[C@@H](C(=O)NCC(N)=O)NC(=O)[C@@H]2CCCN2C(=O)[C@H](C)NC(=O)[C@H](CCC(N)=O)NC(=O)[C@H](C)N(C)C(=O)[C@H](Cc2ccc(-c3ccccc3)cc2)NC(=O)[C@H](Cc2ccccc2)N(C)C(=O)[C@H](C)NC(=O)[C@H]([C@@H](C)O)NC(=O)[C@H]([C@@H](C)O)NC(=O)[C@H](CC(N)=O)NC1=O [Example 1-18, Ac*-F-V-N-T-T-A-(N-Me)F-B-(N-Me)A-Q-A-P-C*-G-NH2] ({CH2CO}-FVNTTA[NMeF][Bip][NMeA]QAPCG-NH2; thioether N-13) | 53 |
| CC(C)[C@@H]1NC(=O)[C@H](Cc2ccccc2)NC(=O)CSC[C@@H](C(=O)NCC(N)=O)NC(=O)[C@@H]2CCCN2C(=O)[C@H](CCCNC(=N)N)NC(=O)[C@H](CC(=O)O)NC(=O)[C@H](C)N(C)C(=O)[C@H](Cc2ccc(-c3ccccc3)cc2)NC(=O)[C@H](C)N(C)C(=O)[C@H](Cc2ccc(-c3ccccc3)cc2)NC(=O)[C@H]([C@@H](C)O)NC(=O)[C@H]([C@@H](C)O)NC(=O)[C@@H]2CCCN2C1=O [Example 1-19, Ac*-F-V-P-T-T-B-(N-Me)A-B-(N-Me)A-D-R-P-C*-G-NH2] ({CH2CO}-FVPTT[Bip][NMeA][Bip][NMeA]DRPCG-NH2; thioether N-13) | 38 |
| CC(C)[C@@H]1NC(=O)[C@H](Cc2ccccc2)NC(=O)CSC[C@@H](C(=O)NCC(N)=O)NC(=O)[C@@H]2CCCN2C(=O)[C@H](CO)NC(=O)[C@@H]2CCCN2C(=O)[C@H](C)N(C)C(=O)[C@H](Cc2ccc(-c3ccccc3)cc2)NC(=O)[C@H](C)N(C)C(=O)[C@H](Cc2ccc(-c3ccccc3)cc2)NC(=O)[C@H]([C@@H](C)O)NC(=O)[C@H]([C@@H](C)O)NC(=O)[C@H](CO)NC1=O [Example 1-20, Ac*-F-V-S-T-T-B-(N-Me)A-B-(N-Me)A-P-S-P-C*-G-NH2] ({CH2CO}-FVSTT[Bip][NMeA][Bip][NMeA]PSPCG-NH2; thioether N-13) | 35 |
| CC(C)[C@@H]1NC(=O)[C@H](Cc2ccccc2)NC(=O)CSC[C@@H](C(=O)NCC(N)=O)NC(=O)[C@@H]2CCCN2C(=O)[C@H](C)NC(=O)[C@H](CCC(=O)O)NC(=O)[C@H](C)N(C)C(=O)[C@H](Cc2ccc(-c3ccccc3)cc2)NC(=O)[C@H](Cc2ccccc2)N(C)C(=O)[C@H](C)NC(=O)[C@H]([C@@H](C)O)NC(=O)[C@H]([C@@H](C)O)NC(=O)[C@@H]2CCCN2C1=O [Example 1-21, Ac*-F-V-P-T-T-A-(N-Me)F-B-(N-Me)A-E-A-P-C*-G-NH2] ({CH2CO}-FVPTTA[NMeF][Bip][NMeA]EAPCG-NH2; thioether N-13) | 81 |
| CC(C)[C@@H]1NC(=O)[C@H](Cc2ccccc2)NC(=O)CSC[C@@H](C(=O)NCC(N)=O)NC(=O)[C@@H]2CCCN2C(=O)[C@H](C)NC(=O)[C@H](CCCCN)NC(=O)[C@H](C)N(C)C(=O)[C@H](Cc2ccc(-c3ccccc3)cc2)NC(=O)[C@H](C)N(C)C(=O)[C@H](Cc2ccccc2)NC(=O)[C@H]([C@@H](C)O)NC(=O)[C@H]([C@@H](C)O)NC(=O)[C@H](C)NC1=O [Example 1-22, Ac*-F-V-A-T-T-F-(N-Me)A-B-(N-Me)A-K-A-P-C*-G-NH2] ({CH2CO}-FVATTF[NMeA][Bip][NMeA]KAPCG-NH2; thioether N-13) | 49 |

same assay, conditions: TR-FRET; Human PCSK9 Alexa Fluor 647 and Human LDLR extracellular domain-Europium Kryptate

| Structure (SMILES) | IC50 [nM] |
| --- | --- |
| CC(C)[C@@H]1NC(=O)[C@H](Cc2ccccc2)NC(=O)CSC[C@@H](C(=O)NCC(N)=O)NC(=O)[C@@H]2CCCN2C(=O)[C@H](CCCNC(=N)N)NC(=O)[C@H](CC(=O)O)NC(=O)[C@H](C)N(C)C(=O)[C@H](Cc2cccc(F)c2)NC(=O)[C@H](C)N(C)C(=O)[C@H](Cc2ccc(-c3ccccc3)cc2)NC(=O)[C@H]([C@@H](C)O)NC(=O)[C@H]([C@@H](C)O)NC(=O)[C@H](CO)NC1=O [Example 1-15, Ac*-F-V-S-T-T-B-(N-Me)A-(3-F)F-(N-Me)A-D-R-P-C*-G-NH2] ({CH2CO}-FVSTT[Bip][NMeA][Phe(3-F)][NMeA]DRPCG-NH2; thioether N-13) | 12 |
| CC(C)[C@@H]1NC(=O)[C@H](Cc2ccccc2)NC(=O)CSC[C@@H](C(=O)NCC(N)=O)NC(=O)[C@@H]2CCCN2C(=O)[C@H](C)NC(=O)[C@H](CCCCN)NC(=O)[C@H](C)N(C)C(=O)[C@H](Cc2ccc(-c3ccccc3)cc2)NC(=O)[C@H](C)N(C)C(=O)[C@H](Cc2ccccc2)NC(=O)[C@H]([C@@H](C)O)NC(=O)[C@H]([C@@H](C)O)NC(=O)[C@H](C)NC1=O [Example 1-22, Ac*-F-V-A-T-T-F-(N-Me)A-B-(N-Me)A-K-A-P-C*-G-NH2] ({CH2CO}-FVATTF[NMeA][Bip][NMeA]KAPCG-NH2; thioether N-13) | 12 |
